Measured values as given in patent US8168568B1, “Combinatorial therapy for protein signaling diseases” (The United States of America, as represented by the …, priority 2003, dated 2012).

Tests used:
Type in all cases: cell-based, human
[1] = test system: EGFr signaling pathway; test: Reverse phase protein microarray of EGFr pathway nodes in EGF-stimulated colon cancer cells treated with kinase inhibitors; conditions: CCL-250 cells, drug treatment 30 minutes, then EGF 0.1 μg/mL; FIG. 6A
Method: The epidermal growth factor receptor (EGFr) signaling pathway, which is a well-characterized pathway where interdependence is already known, was investigated. […]. […] In these experiments, colon cancer cells, ATCC CCL-250, which over-express EGFr 25-75% of the time, were cultured. […] Impact of drug compounds on the pathway was evaluated by treating the cells with a drug compound or a combination of drug compounds for 30 minutes. […] Cells were then scraped from the bottom surface of the wells using a pipet tip and placed into mini-centrifuge tubes. The lysates were then vortexed, boiled for 5 minutes, and centrifuged for 20 minutes at 14,000 rpm. The lysates were arrayed using the reverse phase microarray techniques described in Paweletz et al. […] In contrast to forward-phase protein arrays that immobilize the probe, the reverse phase protein array immobilizes the whole repertoire of patient proteins (e.g. by a nitrocellulose substrate) that represent the state of individual tissue cell populations. Probes are then applied to the immobilized proteins. […] The phospho-antibodies bind to the phosphorylated, or activated, form of the protein. The other antibody binds to and is used to determine the total amount of the protein in the sample. Using the values from these two antibodies, the relative activation of that proteins may be calculated as the ratio of phosphorylated protein to total protein.

[2] = test system: EGF stimulated ATCC CCL-250 cancer cells; test: 10 day colony growth bioassay; conditions: EGF stimulated CCL-250, FIG. 9
[3] = test system: c-erbB1, MEK, and ERK kinases; test: Kinase substrate array time course with and without MEK inhibitor; conditions: CCL250, 10 uM pretreatment 1 hour, 100 ng/ml EGF; FIG. 18B
Method: Separate aliquots at a series of EGF post treatment time intervals were taken and cell lysates were prepared for kinase substrate array analysis.
To determine if this technology can capture the time-course of linked kinase network events, a series of known connected phosphorylation substrates were analyzed: epidermal growth factor receptor (c-erbB1), MEK, and ERK kinases using a colon cancer cell line (CCL250) with over-expressed c-erbB1 receptor levels. […] When these events are analyzed by reverse phase array, both ERK and MEK phosphorylation show a coordinately linked kinetic profile which is expected since ERK is a direct substrate of MEK kinase (FIG. 18A). […] Phosphorylation of kinase substrates is a transient event, as phosphatases promptly dephosphorylate the substrate as the cascade continues.

[4] = test system: COX-2 protein; test: COX-2 protein expression by reverse phase protein array and Western blot; conditions: colon cancer cells, every 24 hours over 72 hours; data not shown
Method: Lysates that were analyzed by Western blot were evaluated for protein concentration with the BCA Protein Assay Kit (Pierce, Rockford, Ill.). Details of Western analyses are well known. Briefly, equal amounts of proteins were fractionated on 4-20% SDS-PAGE gels and transferred to PVDF membranes. After sequential incubations with primary antibodies and peroxidase-conjugated goat anti-rabbit antibodies (Tropix, Bedford, Mass.), signal was developed using an enhanced chemiluminescent staining system (Tropix, Bedford, Mass.). Protein loading was normalized for phospho- and nonphospho-proteins with the total self-protein and β-actin, respectively.
Protein loading was controlled for by expressing COX-2 protein relative to β-actin.

[5] = test system: EGFR; test: EGFR activation time course by reverse phase protein array; conditions: for EGFR receptor phosphorylation: time course experiments, 100 ng/ml EGF, 10 μM PGE2, or 25 ng/ml TGF-α
Method: For the time course assays, colon cancer cells were plated in 24-well plates (1×10e5 cells/well), grown to 80% confluency, and serum-starved for 24 hours. […] Unstimulated cells were used as a control for basal activity. To assess TGF-inhibition, cells were pretreated with 100 ng/ml neutralizing TGF-α antibody for 1 hour before stimulation. […] To harvest cells at each timepoint, a number of cells were removed from wells by gentle scraping and suspended in 100 μL of heated SDS sample buffer (50% Tissue Protein Extraction Reagent, 48% 2× Tris-Glycine SDS Sample Buffer and 2% β-Mercaptoethanol) containing 10 μL of protease inhibitor cocktail per ml of lysate. Cells were immediately transferred to a chilled tube.
The reverse-phase protein array were as previously described (Paweletz et al). Briefly, cell lysates were subjected to one freeze/thaw cycle followed by vigorous vortexing to ensure complete liberation of proteins from the cytosol and the cell membrane. Immediately prior to spotting onto nitrocellulose slides, the samples were boiled for 5 minutes to ensure complete denaturation. Samples were spun at high speed in a microcentrifuge to remove any remaining cellular debris. Nanoliter amounts of the samples were arrayed onto nitrocellulose coated slides (Schleicher and Schuell Bioscience Inc., Keene, N.H.). Each sample was spotted nine times to form a “square” pattern consisting of three dilutions, left to right (neat, 1:2, 1:4), and three replicates of each dilution, top to bottom. Sample buffer alone was spotted as a negative control.
Slides were prepared for signal development by incubating for 10 minutes in a 10% solution of Mild Re-Blot Plus (Chemicon Intl, Temecula, Calif.) to expose antigenic sites embedded in the nitrocellulose. This was followed by two 5-minute washes in PBS and incubation in a casein-based blocking solution (Applied Biosystems, Foster City, Calif.) for at least 1 hour. Signal was developed using an automated staining system based on avidin/biotin and peroxidase methodologies (DakoCytomation, Carpinteria, Calif.). Staining is completed by a 5-minute incubation with 3,3′diaminobenzidine tetrahydrochloride (DAB) which results in a brown-colored precipitate at the antigen site. After signal development, slides were scanned on an Epson flatbed scanner at 1200 dpi. Scanned images (saved as an inverted grayscale TIFF file in Adobe Photoshop version 5.5) were analyzed with ImageQuant version 5.2 software (Molecular Dynamics, Amersham, UK). The spot intensity after background correction was proportional to the concentration of the target protein. […]
Activation is expressed as the relative intensity of stimulated cells compared with unstimulated cells on reverse phase protein microarray. […]

Row | Compound | EGFR receptor phosphorylation [5] | shunting via the CREB node (relative expression of CREB) [1] | other results
1 | COc1cc2ncnc(Nc3cccc(Cl)c3)c2cc1OC [AG1478, 4-(3-chloroanilino)-6,7-dimethoxyquinazoline] | – | not seen | –
2 | NC(=O)c1nnn(Cc2cc(Cl)c(C(=O)c3ccc(Cl)cc3)c(Cl)c2)c1N [CAI, carboxyamidotriazole] | – | – | inhibition of cell proliferation [2]: no significant-growth inhibition
3 | COc1cccc(-c2cc(=O)c3ccccc3o2)c1N [PD98059, 2-(2′-amino-3′-methoxyphenyl)-oxanaphthalen-4-one] | – | causes shunting through this node | phosphorylation of c-erbB1, MEK and ERK after EGF [3]: only ERK phosphorylation was effected; activation of ERK [1]: diminishing the activation of the next node along the pathway, ERK
4 | CCCCC[C@H](O)/C=C/[C@H]1[C@H](O)CC(=O)[C@@H]1C/C=C\CCCC(=O)O [PGE2, prostaglandin E2] | can be induced | – | expression of COX-2 protein relative to β-actin [4]: induced increased expression of COX-2 protein; EGFR activation with or without TGF-α inhibitor pretreatment ([5]; harvested at 5 minutes, 100 ng/ml neutralizing TGF-α antibody 1 hour, FIG. 11): requirement of TGF-α for the activation of EGFR by PGE2

Further lines, with some results ahead:

Row | EGFR receptor phosphorylation [5] | Compound | shunting via the CREB node (relative expression of CREB) [1] | other results
5 | can be induced | EGF: recombinant epidermal growth factor, EGFR ligand used as stimulus | – | –
6 | can be induced | TGF-alpha: EGFR ligand used as stimulus | – | –
